One experiment addresses SARS-CoV-2 Papain-like (PLpro) protease (Severe acute respiratory syndrome coronavirus 2, UniProt P0DTD1). Description: SARS-CoV-2 Papain-like (PLpro) protease biochemical enzyme inhibition assay (ubiquitin-fluorophore substrate, Ub-R110).
Conditions: not given
In general, IC50 refers to the concentration that inhibits the measured activity by half. On to `CCOP(=O)(/C=C/CCNC(=O)C(=O)NCc1ccccc1C(=O)N[C@H](C)c1cccc2ccccc12)OCC` [Example 12], for which the IC50 was over 10 µM.

The same experiment, now with this note: Ub-R110 substrate; run in duplicate; read-out: PLpro IC50.
On to `C[C@@H](NC(=O)c1ccccc1CNC(=O)C(=O)NCCC#N)c1cccc2ccccc12` [Example 5], for which the IC50 was over 10 µM. Still for that read-out and setting: with `CC#CC(=O)NNC(=O)C(=O)NCc1ccccc1C(=O)N[C@H](C)c1cccc2ccccc12` [Example 7] the figure was over 10 µM; with `C[C@@H](NC(=O)c1ccccc1CNC(=O)C(=O)NCCC(=O)C(F)(F)F)c1cccc2ccccc12` [Example 9], 1 to 10 µM; with `COC(=O)/C=C/CCNC(=O)C(=O)Nc1ccccc1C(=O)N[C@H](C)c1cccc2ccccc12` [Example 10], over 10 µM. The same measure, in the same setting: with `COC(=O)/C=C/CNC(=O)C(=O)Nc1ccccc1C(=O)N[C@H](C)c1cccc2ccccc12` [Example 11] the figure was over 10 µM. The same measure, in the same setting: with `C[C@@H](NC(=O)c1ccccc1CNC(=O)C(=O)NCC/C=C/P(=O)(O)O)c1cccc2ccccc12` [Example 13] the figure was over 10 µM; with `C[C@@H](NC(=O)c1ccccc1CNC(=O)C(=O)NC/C=C/C(=O)O)c1cccc2ccccc12` [Example 14], 1 to 10 µM; with `C[C@@H](NC(=O)c1ccccc1CNC(=O)C(=O)NC1(C#N)CC1)c1cccc2ccccc12` [Example 15], over 10 µM. With `CNC(=O)/C=C/CNC(=O)C(=O)NCc1ccccc1C(=O)N[C@H](C)c1cccc2ccccc12` [Example 16], the IC50 is 1 to 10 µM.

For `COC(=O)/C=C/CCNC(=O)C(=O)NCC1C[C@H]1C(=O)N[C@H](C)c1cccc2ccccc12` (some centres unmarked) [Example 17], the IC50 was over 10 µM. Same read-out and setting: with `COC(=O)/C=C/CNC(=O)C(=O)NCC1C[C@H]1C(=O)N[C@H](C)c1cccc2ccccc12` (some centres unmarked) [Example 18] the figure was 1 to 10 µM; with `COC(=O)/C=C/CCNC(=O)C(=O)NCC1C[C@@H]1C(=O)N[C@H](C)c1cccc2ccccc12` (some centres unmarked) [Example 19], over 10 µM.

Regarding `COC(=O)/C=C/CNC(=O)C(=O)NCC1C[C@@H]1C(=O)N[C@H](C)c1cccc2ccccc12` (some centres unmarked) [Example 20], the half-inhibitory concentration (IC50) was in the range of 1 to 10 µM. Same read-out and setting: with `C[C@@H](NC(=O)c1ccccc1CNC(=O)C(=O)N1CCC(=O)N1)c1cccc2ccccc12` [Example 23] the figure was over 10 µM. Regarding `C#CC(=O)NNC(=O)C(=O)Nc1ccccc1C(=O)N[C@H](C)c1cccc2ccccc12` [Example 26], the IC50 fell in the range of 1 to 10 µM. Same read-out and setting: with `C=CC(=O)NNC(=O)C(=O)Nc1ccccc1C(=O)N[C@H](C)c1cccc2ccccc12` [Example 27] the figure was over 10 µM; with `COC(=O)/C=C/CNC(=O)C(=O)NCc1c(F)cc(F)cc1C(=O)N[C@H](C)c1cccc2ccccc12` [Example 30], 0.1 to 1 µM; with `C#CCNC(=O)C(=O)NCc1ccccc1C(=O)NC1(c2cccc3ccccc23)CC1` [Example 32], under 0.1 µM. With `C[C@@H](NC(=O)c1ccccc1CNC(=O)C(=O)NCC#N)c1cc(-c2ccccc2)cc(C(F)(F)F)c1` [Example 34], the concentration for half-maximal inhibition (IC50) is under 0.1 µM.

For the compound `COC(=O)/C=C/CNC(=O)C(=O)NCc1ccccc1C(=O)N[C@H](C)c1cc(-c2ccccc2)cc(C(F)(F)F)c1` [Example 35], the IC50 is under 0.1 µM. On the same count and under the same terms, with `COC(=O)/C=C/C1(NC(=O)C(=O)NCc2ccccc2C(=O)N[C@H](C)c2cccc3ccccc23)CC1` [Example 36] the figure was over 10 µM.

For the compound `COC(=O)/C=C/CNC(=O)C(=O)NCCc1ccccc1C(=O)N[C@H](C)c1cccc2ccccc12` [Example 37], the IC50 fell in the range of 0.1 to 1 µM. Still for that read-out and setting: with `N#CCNC(=O)C(=O)NCc1ccccc1C(=O)NC1(c2ccc3ccccc3c2)CC1` [Example 39] the figure was 0.1 to 1 µM. On the same count and under the same terms, with `N#CC1CCCN1C(=O)C(=O)NCc1ccccc1C(=O)NC1(c2cccc3ccccc23)CC1` (centres unmarked) [Example 41] the figure was over 10 µM; with `C=C(CNC(=O)C(=O)NCc1ccccc1C(=O)N[C@H](C)c1cccc2ccccc12)C(=O)O` [Example 42], over 10 µM; with `COC(=O)/C=C/CNC(=O)C(=O)NCc1ccccc1C(=O)NC1(c2ccc3ccccc3c2)CC1` [Example 43], under 0.1 µM. As to `N#CCNC(=O)C(=O)NCc1ccccc1C(=O)NC1(c2cc(Br)cc3ccccc23)CC1` [Example 44], the half-maximal inhibitory concentration (IC50) was under 0.1 µM. Still for that read-out and setting: with `N#CCNC(=O)C(=O)NCc1ccccc1C(=O)NC1(c2cc(C(F)(F)F)cc(C(F)(F)F)c2)CC1` [Example 45] the figure was 1 to 10 µM. In the case of `CC(NC(=O)C(=O)NCC#N)c1ccccc1C(=O)N[C@H](C)c1cccc2ccccc12` (some centres unmarked) [Example 50], the IC50 is over 10 µM. The same measure, in the same setting: with `COC(=O)/C=C/CCNC(=O)C(=O)NC(C)c1ccccc1C(=O)N[C@H](C)c1cccc2ccccc12` (some centres unmarked) [Example 51] the figure was over 10 µM. As for `COC(=O)/C=C/CNC(=O)C(=O)NC(C)c1ccccc1C(=O)N[C@H](C)c1cccc2ccccc12` (some centres unmarked) [Example 52], the IC50 was 1 to 10 µM. Still for that read-out and setting: with `C#CCNC(=O)C(=O)NCc1ccccc1C(=O)NC1(c2cc(-c3cn(-c4ccc(F)cc4F)nn3)cc(C(F)(F)F)c2)CC1` [Example 57] the figure was 1 to 10 µM; with `N#CCNC(=O)C(=O)NCc1ccccc1C(=O)NC1(c2cc(-c3cn(-c4ccc(F)cc4F)nn3)cc(C(F)(F)F)c2)CC1` [Example 58], over 10 µM; with `N#CCNC(=O)C(=O)NCc1ccccc1C(=O)NC1(c2cc(-c3cn(C4CC4)nn3)cc(C(F)(F)F)c2)CC1` [Example 60], 0.1 to 1 µM. Same read-out and setting: with `C#CCNC(=O)C(=O)NCc1ccccc1C(=O)NC1(c2cc(Oc3cccc(OC)c3)cc(C(F)(F)F)c2)CC1` [Example 63] the figure was over 10 µM; with `COc1cccc(Oc2cc(C(F)(F)F)cc(C3(NC(=O)c4ccccc4CNC(=O)C(=O)NCC#N)CC3)c2)c1` [Example 64], over 10 µM. Still for that read-out and setting: with `C#CCNC(=O)C(=O)NCc1ccccc1C(=O)NC1(c2cc(Oc3cccc(C(F)(F)F)c3)cc(C(F)(F)F)c2)CC1` [Example 65] the figure was over 10 µM. For the compound `N#CCNC(=O)C(=O)NCc1ccccc1C(=O)NC1(c2cc(Oc3cccc(C(F)(F)F)c3)cc(C(F)(F)F)c2)CC1` [Example 66], the IC50 is over 10 µM. On the same count and under the same terms, with `C#CCNC(=O)C(=O)NCc1ccccc1C(=O)NC1(c2cc(Oc3ccccc3)cc(C(F)(F)F)c2)CC1` [Example 67] the figure was over 10 µM; with `N#CCNC(=O)C(=O)NCc1ccccc1C(=O)NC1(c2cc(Oc3ccccc3)cc(C(F)(F)F)c2)CC1` [Example 68], over 10 µM. The same measure, in the same setting: with `N#CCNC(=O)C(=O)NCc1ccccc1C(=O)NC1(c2cc(Cl)cc(-c3cnc(C(F)(F)F)nc3)c2)CC1` [Example 72] the figure was 0.1 to 1 µM; with `O=C(NCC#Cc1cc(F)cc(F)c1)C(=O)NCc1ccccc1C(=O)NC1(c2ccc3ccccc3c2)CC1` [Example 75], over 10 µM. On the same count and under the same terms, with `O=C(NCC#Cc1ccc(F)cc1)C(=O)NCc1ccccc1C(=O)NC1(c2ccc3ccccc3c2)CC1` [Example 76] the figure was over 10 µM; with `CN(C(=O)c1cc(Cl)cc(C2(NC(=O)c3ccccc3CNC(=O)C(=O)NCC#N)CC2)c1)c1ccc(F)cc1` [Example 78], 0.1 to 1 µM. As for `O=C(NCC#Cc1ccc(F)cc1F)C(=O)NCc1ccccc1C(=O)NC1(c2ccc3ccccc3c2)CC1` [Example 80], the IC50 is over 10 µM. On the same count and under the same terms, with `O=C(NCC#Cc1ccc(C(F)(F)F)s1)C(=O)NCc1ccccc1C(=O)NC1(c2ccc3ccccc3c2)CC1` [Example 89] the figure was over 10 µM. With `C#C[C@@H](NC(=O)C(=O)NCc1ccccc1C(=O)NC1(c2ccc3nn(C)cc3c2)CC1)C(C)C` [Example 91], the 50% inhibitory concentration (IC50) is over 10 µM. Still for that read-out and setting: with `N#Cc1ccc(C#CCNC(=O)C(=O)NCc2ccccc2C(=O)NC2(c3ccc4ccccc4c3)CC2)s1` [Example 92] the figure was 1 to 10 µM. Still for that read-out and setting: with `N#Cc1cccc(C#CCNC(=O)C(=O)NCc2ccccc2C(=O)NC2(c3ccc4ccccc4c3)CC2)c1` [Example 93] the figure was over 10 µM; with `N#Cc1ccc(C#CCNC(=O)C(=O)NCc2ccccc2C(=O)NC2(c3ccc4ccccc4c3)CC2)c(C(F)(F)F)c1` [Example 95], 0.1 to 1 µM; with `N#CCNC(=O)C(=O)NCc1ccccc1C(=O)NC1(c2cccc3ccccc23)COC1` [Example 96], over 10 µM. On the same count and under the same terms, with `C[C@@H](C#Cc1ccc(F)cc1C#N)NC(=O)C(=O)NCc1ccccc1C(=O)NC1(c2ccc3nn(C)cc3c2)CC1` [Example 101] the figure was 0.1 to 1 µM.

For the compound `C#CCNC(=O)C(=O)NCc1ccccc1C(=O)NC1(c2cccc3ccccc23)COC1` [Example 102], the IC50 is over 10 µM. On the same count and under the same terms, with `N#Cc1ccc(C#CCNC(=O)C(=O)NCc2ccccc2C(=O)NC2(c3cccc4ccccc34)COC2)c(F)c1` [Example 108] the figure was over 10 µM; with `C[C@@H](C#Cc1ccc(C#N)cc1C#N)NC(=O)C(=O)NCc1ccccc1C(=O)NC1(c2ccc3nn(C)cc3c2)CC1` [Example 110], 1 to 10 µM; with `C[C@@H](C#Cc1ccc([S+](C)[O-])cc1)NC(=O)C(=O)NCc1ccccc1C(=O)NC1(c2ccc3nn(C)cc3c2)CC1` (some centres unmarked) [Example 111], 1 to 10 µM.

As to `COc1ccc(C#C[C@H](C)NC(=O)C(=O)NCc2ccccc2C(=O)NC2(c3ccc4nn(C)cc4c3)CC2)c(C#N)c1` [Example 112], the IC50 is under 0.1 µM. The same measure, in the same setting: with `C[C@@H](C#Cc1ccc(Cl)cc1C#N)NC(=O)C(=O)NCc1ccccc1C(=O)NC1(c2ccc3nn(C)cc3c2)CC1` [Example 113] the figure was under 0.1 µM; with `N#CCNC(=O)C(=O)NCc1ccc(C(=O)NC2CC2)cc1C(=O)NC1(c2ccc(F)c3ccccc23)CC1` [Example 116], under 0.1 µM. Still for that read-out and setting: with `N#C[C@H]1CCCN1C(=O)C(=O)NCc1ccccc1C(=O)NC1(c2cccc3ccccc23)CC1` [Example 118] the figure was over 10 µM. The same measure, in the same setting: with `N#C[C@@H]1CCN1C(=O)C(=O)NCc1ccccc1C(=O)NC1(c2cccc3ccccc23)CC1` [Example 119] the figure was 1 to 10 µM.

Take `N#C[C@H]1CCN1C(=O)C(=O)NCc1ccccc1C(=O)NC1(c2cccc3ccccc23)CC1` [Example 120]: the IC50 was over 10 µM. On the same count and under the same terms, with `O=C(NCc1ccccc1C(=O)NC1(c2ccc(F)c3ccccc23)CC1)C(=O)N[C@H]1CNC1=O` [Example 122] the figure was over 10 µM; with `O=C(NCc1ccccc1C(=O)NC1(c2ccc(F)c3ccccc23)CC1)C(=O)N[C@@H]1CNC1=O` [Example 123], over 10 µM.
